Key:
[1] = Hydrodynamic size and size distribution of nanoprodrugs by dynamic light scattering; type: physicochemical
Procedure: Briefly, 25 mg of the compounds were dissolved in acetone (5 ml) containing polysorbate 80 (0.1% w/v). […] Following 15 min of magnetic stirring, the acetone was removed under reduced pressure at room temperature.
The hydrodynamic size measurement and size distribution of the nanoprodrugs were performed by the dynamic light scattering (DLS) using a Coulter N4-Plus Submicron Particle Sizer (Coulter Corporation, Miami, Fla., USA). The nanoprodrugs were diluted in deionized water and the analysis was performed at a scattering angle of 90° and at a temperature of 25° C. Three separate preparations were analyzed for each nanoprodrug. For each preparation mean diameter and mean polydispersity index (P.I.) of three determinations were calculated. The mean diameter±standard deviation (S.D.) and P.I.±S.D. were calculated from the three mean diameters and mean P.I.'s of the three separate preparations.

Esterase (porcine liver) = experiment: Enzymatic destabilization / hydrolysis of nanoprodrugs by esterase; type: in vitro ADME; details: esterase 5 U/ml; for Parent drugs hydrolyzed / released from the nanoprodrugs after 1 h incubation / Concentration of the released drugs / Drug release: nanoprodrug 500 μM; for Concentration of the released drugs / Drug release: 60 min, room temperature, PBS pH 7.4; for Concentrations of the released drugs after 12 h incubation: compared with ALA-TEG-Npx and ALA-TEG-Ibu after 1 h
Procedure: Esterase (porcine liver, Sigma, code E3019) was added to the final concentration of 5 U/ml. For the nanoprodrugs from the three bifunctional prodrugs, ALA-TEG-Ibu, ALA-TEG-Npx and ALA-TEG-Ind, the reduction in turbidity was monitored using ultraviolet/visible spectrometer (Bio-Rad SmartSpec™ 3000) for 60 min at room temperature with a wavelength λ=500 nm and 1 min acquisition interval. For the nanoprodrugs from the three dimeric prodrugs, Ibu2TEG, Npx2TEG and Ind2TEG, the samples were taken during the incubation for 12 h at room temperature with appropriate time interval and the reduction in turbidity was measured.
To determine the amount of enzymatically hydrolyzed NSAIDs, samples were centrifuged for 10 min at 20,000×g and the supernatants were analyzed by RP-HPLC using a C18 reversed phase column (Section 2.5).
The concentration of the NSAIDs was determined using calibration curves generated in the concentration range of 25-500 μM. Error bar represents±S.D. calculated from triplicate determinations. The stability of the nanoprodrugs under the experimental conditions in the absence of esterase was evaluated as follows. The purified nanoprodrugs were suspended in PBS (pH 7.4) and incubated for 12 h at room temperature. The amount of the intact prodrugs was determined using RP-HPLC as described above.

esterase [2] = experiment: Effect of nanoprodrug oxidation on the rate of enzymatic hydrolysis; type: in vitro ADME, porcine; details: determined immediately after addition of esterase 2 U/ml; HOCl 500 μM 2 min
Procedure: In order to evaluate the effect of prodrug oxidation on the rate of enzymatic hydrolysis, the initial hydrolysis rate of NSAIDs from the oxidized and non-oxidized nanoprodrugs was determined. The nanoprodrugs prepared from ALA-TEG-Ibu, ALA-TEG-Npx and ALA-TEG-Ind (250 μM in PBS, pH 7.4) were incubated in the absence and presence of HOCl (500 μM) for 2 min. Esterase (2 U/ml) was added and mixed by pipetting up and down. The reaction mixture was centrifuged immediately after addition of esterase and the supernatant was quickly transferred into a new tube and incubated further to complete hydrolysis. The hydrolyzed NSAIDs in the supernatant were quantified using RP-HPLC as described above. Error bar represents±S.D. calculated from triplicate determinations.
To evaluate the sequence of hydrolysis after oxidation, the nanoprodrugs were incubated in presence of HOCl (500 μM) for 2 min and esterase (2 U/ml) was added. The reaction mixture was mixed by pipetting up and down and immediately centrifuged for 10 min at 20,000×g. The supernatant was analyzed using RP-HPLC as described above.

esterase [3] = experiment: Recovery of NSAIDs from oxidized nanoprodrugs (esterase hydrolysis); type: in vitro ADME, porcine; details: 250 μM, HOCl 500 μM 2 min, esterase 2 U/ml, overnight 37° C.
Procedure: The recovery yield of NSAIDs was determined for oxidized and non-oxidized nanoprodrugs. The nanoprodrugs prepared from ALA-TEG-Ibu, ALA-TEG-Npx and ALA-TEG-Ind (250 μM in PBS, pH 7.4) were incubated in the presence and absence of HOCl (500 μM) for 2 min. Esterase (2 U/ml) was added and mixed by pipetting up and down. In order to determine the total amount of available NSAIDs from the oxidized and non-oxidized nanoprodrugs, the hydrolysis was carried out overnight at 37° C. The reaction mixture was centrifuged for 10 min at 20,000×g and the hydrolyzed NSAIDs in the supernatant were quantified using RP-HPLC. Error bar represents±S.D. calculated from triplicate determinations.

[4] = Oxidative destabilization of nanoprodrugs (turbidity at 500 nm after HOCl); details: nanoprodrug 250 μM, HOCl 25-1000 μM
Procedure: The nanoprodrugs were purified by centrifuging three times at 20,000×g for 10 min at 25° C. and resuspending each time in the same volume of deionized water. The purified nanoprodrugs were resuspended in phosphate buffered saline (PBS, pH 7.4) to give the final concentration of 250 μM NSAID derivatives. The concentration of HOCl in the diluted commercial sodium hypochlorite solution was determined spectrophotometrically (ε292=350 M^−1 cm^−1) (Morris, 1966). HOCl was added to the suspension of nanoprodrugs to give the final concentration of 25-1000 μM and the reduction in turbidity was measured immediately using ultraviolet/visible spectrometer (Bio-Rad SmartSpec™ 3000, Hercules, Calif., USA) at room temperature with a wavelength λ=500 nm.

[5] = system: U87-MG human glioma cell line; details: nanoprodrug 10 to 100 μM, 3 days
Procedure: The cells were grown and maintained in Minimum Essential Medium (MEM) (Invitrogen) containing antibiotics 100 U/mL penicillin (Invitrogen) and 100 μg/mL streptomycin (Invitrogen), and supplemented with 10% fetal bovine serum (FBS) (Invitrogen). Cells were kept at 37° C. in a humidified atmosphere including 5% CO2.
Nanoprodrugs were prepared from the monomeric derivative Ibu2TEG (25 mg) as described in Example 6 and dialyzed in phosphate buffered saline (PBS) over night. The human glioma cells (U87-MG) were seeded in a 25 cm^2 flask at 2.5×10^5 cells/5 mL and allowed to grow for 24 h. The medium was changed and the cells were treated with nanoprodrugs at final concentration ranging from 10 to 100 μM for the monomeric derivative Ibu2TEG. After a 3-day treatment, the medium was remove, cells were washed with PBS and 1 mL of 0.25% trypsin/EDTA (Gibco) was added to detach the cells. […] Control culture was treated with PBS.

[6] = system: human glioma cells (U87-MG); experiment: WST-1 cell viability assay, glioma cells; type: cell-based; details: free ibuprofen up to 600 μM, 72 h
Procedure: Growth inhibition was evaluated by the WST-1 (water-soluble tetrazolium salt) colorimetric assay (Boehringer Mannheim) according to the manufacturer's instructions. […] Cells were incubated at 37° C. for 1-4 h, and the absorbance was read by an ELISA plate reader at 450 nm. The cell viability was calculated as follows: Cell viability (%)=(Abss/Absc)×100, where Abss is the absorbance of cells treated with drugs and Absc is the absorbance of control cells incubated with cell culture medium only (See FIG. 9.).

[7] = system: human glioma cells (U87-MG); experiment: Cell death by propidium iodide uptake; type: cell-based; details: 200 μM of ibuprofen in DMSO, 72 h
Procedure: The human glioma cells (U87-MG) were seeded at 1×10^5 cells per well in 6-well plates, and allowed to grow for 24 h. The medium was changed and the cells were treated with 50 or 100 μM of nanoprodrug of Ibu2TEG or 200 μM of ibuprofen dissolved in DMSO for 72 h. Control cultures were treated with DMSO or cell culture medium only. After the end of treatment, glioma cells were incubated with 5 μM of propidium iodide (Sigma) for 1 h. Propidium iodide fluorescence was excited at 515-560 nm using an inverted microscope fitted with a standard rhodamine filter.

[8] = another NSAID nanosphere, Table 2C
[9] = hydrodynamic size of additional nanospheres, Table 2B
[10] = polydispersity index of additional nanospheres, Table 2B
[11] = nanoprodrugs of the derivative, Table 2A, n = 3, ±S.D., DLS 25° C.
[12] = polydispersity index of nanoprodrugs, Table 2A, n = 3, ±S.D.

Row | Size (nm) [1, 9] [nm] | P.I. [1, 10] | Size (nm) [1, 11] [nm] | P.I. [1, 12] | SMILES | further results
1 |  |  |  |  | O=C(OCCOCCOCCOCCOC(=O)c1ccccc1Nc1cccc(C(F)(F)F)c1)c1ccccc1Nc1cccc(C(F)(F)F)c1 [(FA)2TEG, Tetraethylene glycol(flufenamic acid)2] | P.I. [1, 8]: 0.11; Size (nm) [1, 8]: 118 ± 32 nm
2 | 187 ± 54 | 0.13 |  |  | COc1ccc2c(c1)c(CC(=O)OCCOCCOC(=O)CCCCC1CCSS1)c(C)n2C(=O)c1ccc(Cl)cc1 (stereo not drawn) [ALA-DEG-IND, (α-Lipoic acid)-diethylene glycol(indomethacin)] | 
3 | 210 ± 53 | 0.09 |  |  | CC(C)Cc1ccc(C(C)C(=O)OCCOCCOC(=O)CCCCC2CCSS2)cc1 (stereo not drawn) [ALA-DEG-Ibu, (α-Lipoic acid)-diethylene glycol(ibuprofen)] | 
4 | 274 ± 56 | 0.05 |  |  | COc1ccc2cc([C@H](C)C(=O)OCCOCCOC(=O)CCCCC3CCSS3)ccc2c1 (stereo partly drawn) [ALA-DEG-Npx, (α-Lipoic acid)-diethylene glycol(naproxen)] | 
5 | 149 ± 36 | 0.08 |  |  | O=C(CCCCC1CCSS1)OCCOCCOCCOCCOC(=O)c1ccccc1Nc1cccc(C(F)(F)F)c1 (stereo not drawn) [ALA-TEG-FA, (α-Lipoic acid)-tetraethylene glycol(flufenamic acid)] | 
6 |  |  | 251 ± 13 | 0.10 ± 0.03 | CC(C)Cc1ccc(C(C)C(=O)OCCOCCOCCOCCOC(=O)CCCCC2CCSS2)cc1 (stereo not drawn) [ALA-TEG-Ibu] | Parent drugs hydrolyzed / released from the nanoprodrugs after 1 h incubation (Esterase (porcine liver)): approximately 90%; Concentration of the released drugs (Esterase (porcine liver)): 417 µM; Drug release (Esterase (porcine liver)): 83%; Increase of the amount of hydrolyzed drugs from oxidized vs non-oxidized nanoprodrugs (esterase [2]): approximately two; Released parent drugs from the oxidized nanoprodrugs in comparison with non-oxidized controls (esterase [3]): 80%
7 |  |  | 253 ± 25 | 0.09 ± 0.05 | COc1ccc2c(c1)c(CC(=O)OCCOCCOCCOCCOC(=O)CCCCC1CCSS1)c(C)n2C(=O)c1ccc(Cl)cc1 (stereo not drawn) [ALA-TEG-Ind] | Induction phase of oxidative destabilization [4]: longest induction phase
8 |  |  | 298 ± 6 | 0.05 ± 0.01 | COc1ccc2cc([C@H](C)C(=O)OCCOCCOCCOCCOC(=O)CCCCC3CCSS3)ccc2c1 (stereo partly drawn) [ALA-TEG-Npx] | Parent drugs hydrolyzed / released from the nanoprodrugs after 1 h incubation (Esterase (porcine liver)): approximately 90%; Concentration of the released drugs (Esterase (porcine liver)): 454 µM; Drug release (Esterase (porcine liver)): 91%; Increase of the amount of hydrolyzed drugs from oxidized vs non-oxidized nanoprodrugs (esterase [2]): three; Induction phase of oxidative destabilization [4]: less apparent; Released parent drugs from the oxidized nanoprodrugs in comparison with non-oxidized controls (esterase [3]): 87%
9 |  |  | 186 ± 11 | 0.13 ± 0.02 | CC(C)Cc1ccc(C(C)C(=O)OCCOCCOCCOCCOC(=O)C(C)c2ccc(CC(C)C)cc2)cc1 (stereo not drawn) [Ibu2TEG, Tetraethylene glycol(ibuprofen)2] | Cell number compared to the control culture [5]: significant decrease in cell number; Concentrations of the released drugs after 12 h incubation (Esterase (porcine liver)): comparable
10 |  |  | 159 ± 10 | 0.06 ± 0.03 | COc1ccc2c(c1)c(CC(=O)OCCOCCOCCOCCOC(=O)Cc1c(C)n(C(=O)c3ccc(Cl)cc3)c3ccc(OC)cc13)c(C)n2C(=O)c1ccc(Cl)cc1 [Ind2TEG] | 
11 |  |  | 259 ± 9 | 0.06 ± 0.02 | COc1ccc2cc(C(C)C(=O)OCCOCCOCCOCCOC(=O)C(C)c3ccc4cc(OC)ccc4c3)ccc2c1 (stereo not drawn) [Npx2TEG] | Concentrations of the released drugs after 12 h incubation (Esterase (porcine liver)): comparable
12 |  |  |  |  | CC(C)Cc1ccc(C(C)C(=O)O)cc1 (stereo not drawn) [ibuprofen] | Effect on cell viability [6]: did not show any significant effect; Propidium iodide incorporation (cell death) [7]: no significant propidium iodide incorporation

Source: patent US8603531B2, “Nanometer-sized prodrugs of NSAIDs” (Cedars-Sinai Medical Center, priority 2008, dated 2013)
